Results: ChEMBL document CHEMBL1126546, “Vitamin D analogues: new regulators of cancer cell growth and differentiation” (Bioorg Med Chem Lett, 1993)

Assays:
U-937 [1] = test: Concentration required for the compound to induce U 937 cells along the monocyte-macrophage pathway; type: functional, cell-based; settings: Homo sapiens
Rattus norvegicus = test: Compound was tested for in vivo antitumor effect on rats with mammary tumors induced by nitrosomethylurea at a dose of 2.5 ug/kg/day; type: functional
U-937 [2] = test: Compound was tested in vitro to inhibit proliferation of U 937 human histiolytic lymphoma cells; type: functional, cell-based

| Structure (SMILES) | Concentration (U-937 [1]) [nM] | inhibition in vivo at 0.0025 mg/kg/day (Rattus norvegicus) [%] | IC50 (U-937 [2]) [nM] |
| --- | --- | --- | --- |
| C=C1/C(=C\C=C2/CCC[C@]3(C)[C@@H]([C@H](C)CCCC(C)(C)O)CC[C@@H]23)C[C@@H](O)C[C@@H]1O | 2 |  |  |
| C=C1/C(=C\C=C2/CCC[C@]3(C)[C@@H]([C@H](C)/C=C/C=C/C(O)(CC)CC)CC[C@@H]23)C[C@@H](O)C[C@@H]1O [SEOCALCITOL] | 0.03 | 80 | 0.25 |
